In ChEMBL document CHEMBL1201862, “PubChem BioAssay data set” (2004):
Calls of active or inactive are those of the source.

Experiments:
[1] = target: Estrogen receptor beta (Homo sapiens, UniProt Q92731); assay: ERβ–SRC-3 coactivator interaction inhibitors, confirmation, orthogonal assay, biochemical, ELISA, streptavidin-HRP readout (AID 1060)
[2] = HepG2 cell cytotoxicity, dose response, cytotoxicity control, cherry-picked samples (AID 1159577); assay type: functional, cell-based
[3] = P. falciparum Dd2 growth inhibitors, dose response, SYBR Green, cherry-picked samples (AID 1159567); assay type: functional, cell-based
[4] = system: Streptococcus sp. 'group A'; assay: growth inhibition of control SK(-) GAS strain, dose response, counter-screen for streptokinase expression inhibitor project, luminescence, kanamycin, BacTiterGlo, confirmation (AID 1900); assay type: functional, organism-based
[5] = HEp-2 cell cytotoxicity, dose response, cytotoxicity control for RSV inhibitor project, HTS (AID 2410); assay type: functional; conditions: human respiratory syncytial virus
[6] = system: Streptococcus; assay: Group A Streptococcus viability loss, dose response, counter-screen for streptokinase expression inhibitor project, luminescence, BacTiterGlo (AID 1915); assay type: functional, organism-based;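 also: potency for reduction of bacterial viability or growth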
[7] = microbe, parasite or virus in culture; assay type: functional; conditions: Mycobacterium tuberculosis
[8] = target: T1, Streptokinase A (Streptococcus pyogenes serotype M1, UniProt P10520); assay: S. pyogenes streptokinase expression inhibitors, potency, dose response, plasminogen activation absorbance, OD405 (AID 1914); assay type: functional, Streptococcus pyogenes M1 GAS;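 also: secreted streptokinase activity via plasminogen activation per viability signal from cell pellet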
T1 sequence (P10520 whole entry): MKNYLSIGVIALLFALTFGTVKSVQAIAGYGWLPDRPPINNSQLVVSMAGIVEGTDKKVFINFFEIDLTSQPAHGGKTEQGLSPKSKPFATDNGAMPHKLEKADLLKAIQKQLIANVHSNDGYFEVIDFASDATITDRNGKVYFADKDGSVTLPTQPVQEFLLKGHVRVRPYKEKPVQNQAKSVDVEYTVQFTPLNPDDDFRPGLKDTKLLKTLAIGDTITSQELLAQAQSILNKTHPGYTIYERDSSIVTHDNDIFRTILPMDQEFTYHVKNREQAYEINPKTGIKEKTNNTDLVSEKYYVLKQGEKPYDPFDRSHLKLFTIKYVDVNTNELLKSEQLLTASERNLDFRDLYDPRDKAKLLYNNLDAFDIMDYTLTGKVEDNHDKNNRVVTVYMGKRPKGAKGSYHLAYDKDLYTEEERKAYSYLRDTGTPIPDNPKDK

[9] = Luminescence Cell-Based Dose Response to Identify Activators of 5'UTR Stem-Loop Driven Prion Protein mRNA Translation in H4-C Neuroglioblastoma Cells. [Related pubchem assays: 1829 (Project Summary), 1814 (Primary HTS)]; assay type: functional
[10] = Luminescence Cell-Based Dose Confirmation to Identify Activators of 5'UTR Stem-Loop Driven Alpha-Synuclein mRNA Translation in H4 Neuroglioblastoma Cells. [Related pubchem assays: 1829 (Project Summary), 1814 (Primary HTS)]; assay type: functional
[11] = Luminescence Cell-Based Dose Response HTS to Identify Activators of Luciferase Translation or Activity in H4 […] Cells. [Related pubchem assays: 1829 (Project Summary), 1814 (Primary HTS)]; assay type: functional
[12] = Luminescence Cell-Based Dose Response to Identify Activators of Luciferase Translation or Activity in H4-C Neuroglioblastoma Cells. [Related pubchem assays: 1829 (Project Summary), 1814 (Primary HTS)]; assay type: functional
[13] = target: T2, CAAX prenyl protease 2 (Saccharomyces cerevisiae S288c, UniProt Q03530); assay type: biochemical
T2 sequence (Q03530 whole entry): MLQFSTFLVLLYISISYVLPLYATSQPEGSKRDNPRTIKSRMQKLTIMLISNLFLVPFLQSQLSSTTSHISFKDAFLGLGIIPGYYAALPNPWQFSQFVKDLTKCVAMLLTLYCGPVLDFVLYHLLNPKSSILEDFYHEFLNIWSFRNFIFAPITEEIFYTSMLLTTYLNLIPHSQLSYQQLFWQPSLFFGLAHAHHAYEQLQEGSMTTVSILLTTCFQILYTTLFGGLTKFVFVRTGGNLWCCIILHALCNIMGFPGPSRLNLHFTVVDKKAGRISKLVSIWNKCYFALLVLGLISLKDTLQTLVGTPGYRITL

[14] = P. falciparum Dd2 growth inhibitors, dose response, SYBR Green, dry powder samples (AID 1159566); assay type: functional, cell-based;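 also: potency for growth inhibition with lower SYBR green DNA signal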
[15] = P. falciparum ATP4 D1247Y mutant growth inhibitors, dose response, NITD609-resistant line, SYBR Green, dry powder (AID 1159571); assay type: functional, cell-based;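 also: parasites synchronized at ring stage by sorbitol before testing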
[16] = P. falciparum 3D7-ScDHODH growth inhibitors, dose response, SYBR Green, dry powder samples (AID 1159570); assay type: functional, cell-based;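 also: parasite growth measured after 72 hours of compound exposure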
[17] = system: H4; assay: Luminescence Cell-Based Dose Response HTS to Identify Activators of 5'UTR Stem-Loop Driven Prion Protein mRNA Translation in H4 Neuroglioblastoma Cells. [Related pubchem assays: 1829 (Project Summary), 1814 (Primary HTS)]; assay type: functional; conditions: Homo sapiens
[18] = Luminescence Cell-Based Dose Confirmation HTS to Identify Activators of 5'UTR Stem-Loop Driven Alpha-Synuclein mRNA Translation in H4 Neuroglioblastoma Cells. [Related pubchem assays: 1829 (Project Summary), 1814 (Primary HTS)]; assay type: functional
[19] = system: Vero; assay: cells; assay type: functional; conditions: Chlorocebus sabaeus

Chain of Estrogen receptor beta (Q92731 whole entry): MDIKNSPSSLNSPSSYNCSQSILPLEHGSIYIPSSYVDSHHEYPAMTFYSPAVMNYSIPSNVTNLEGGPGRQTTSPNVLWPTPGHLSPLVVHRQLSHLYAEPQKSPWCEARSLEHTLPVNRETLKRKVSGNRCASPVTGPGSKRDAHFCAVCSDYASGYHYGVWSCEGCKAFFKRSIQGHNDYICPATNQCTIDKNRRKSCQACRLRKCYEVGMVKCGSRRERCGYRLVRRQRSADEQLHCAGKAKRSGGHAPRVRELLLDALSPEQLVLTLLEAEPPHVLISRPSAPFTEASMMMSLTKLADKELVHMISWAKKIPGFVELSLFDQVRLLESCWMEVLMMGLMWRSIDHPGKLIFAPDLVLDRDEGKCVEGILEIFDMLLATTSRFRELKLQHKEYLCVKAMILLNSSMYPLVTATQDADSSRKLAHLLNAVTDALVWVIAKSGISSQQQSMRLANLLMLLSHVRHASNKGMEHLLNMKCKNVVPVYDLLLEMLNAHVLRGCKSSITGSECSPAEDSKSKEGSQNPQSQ

For `CCCc1cc(O)nc(SCC(=O)Nc2ccc(C(=O)OC)cc2)n1`, the IC50 [1] was > 50 µM (not active).
For `C[C@@H]1CN([C@@H](C)CO)C(=O)Cc2cc(NC(=O)Nc3ccc(C(F)(F)F)cc3)ccc2O[C@H]1CN(C)CC1CCCCC1`, the AC50 [2] was 10.4 µM (active) and the AC50 [3] was 1.35 µM (active).
With `COc1ccc2c3c([nH]c2c1)[C@H](CO)N(Cc1ccncc1)CC31CCN(Cc2ccc(-c3ccccn3)cc2)CC1` the AC50 [2] was 17.6 µM (active) and the AC50 [3] was 0.973 µM (active).
For `Cn1cnnc1SCc1ccc(C(=O)N=Nc2c(O)n(Cc3ccc(Cl)cc3)c3ccccc23)cc1`, the EC50 [4] was 3.12 µM (active), the CC50 [5] was 16.5 µM (active) and the EC50 [6] was > 150 µM (not active). For the same compound, the CC50 [7] was 21.2 µM (active) and the EC50 [8] was 18 µM (inconclusive).
For `O=C(Nc1ncc(Cc2ccccc2)s1)C1COc2ccccc2O1` (stereo not drawn), the EC50 [9] was 0.179 µM (active), the EC50 [10] was 0.465 µM (active) and the EC50 [11] was < 0.1 µM (active). For the same compound, the EC50 [12] was 11.4 µM (active).
For `CN(C)c1cc(O)c(C(S)=Nc2ccccc2)c(N(C)C)c1`, the AC50 [13] was 52.2 µM (active).
With `C[C@H](CO)N1C[C@H](C)[C@@H](CN(C)Cc2ccc3c(c2)OCO3)Oc2ccc(NC(=O)Nc3ccc(C(F)(F)F)cc3)cc2CC1=O` the AC50 [14] was 0.94 µM (active), the AC50 [15] was 0.852 µM (active) and the AC50 [16] was 0.954 µM (active). The AC50 [2] was > 39 µM (inactive) and the AC50 [3] was 1.14 µM (active).
With `C/C(=N\OC(=O)c1ccc(F)cc1)c1sc(-c2ccc(Cl)cc2)nc1C` the EC50 [9] was 0.301 µM (active), the EC50 [17] was < 0.1 µM (active) and the EC50 [10] was 0.236 µM (active). The EC50 [18] was < 0.1 µM (active), the EC50 [11] was 0.122 µM (active) and the EC50 [12] was 0.37 µM (active).
For `CN1CCN(Cc2c(C(=O)N/N=C/c3cccc(Br)c3)nnn2-c2nonc2N)CC1`, the CC50 [19] was 10.1 µM (active) and the AC50 [13] was 2.08 µM (active).
